Source: PMC4409056, “A Maltose-Binding Protein Fusion Construct Yields a Robust Crystallography Platform for MCL1” (PLoS ONE, 2015)

What was measured:
MCL1 173–329 = molecular target: T1, MCL1 173–329 (Homo sapiens, UniProt Q07820); assay: isothermal titration calorimetry; format: binding
T1 construct: residues 173-329 (no N-terminal region, no transmembrane domain), E. coli, 6xHis-Smt3 tag cleaved by Ulp-1, wild type

MBP-MCL1 = molecular target: T2, MBP-MCL1 (Homo sapiens, UniProt Q07820, K194A/K197A/R201A); assay: isothermal titration calorimetry; crystal structure […] Å (soak); format: binding
T2 construct: 6xHis-TEV tag cleaved, MBP kept; E. coli

[1] = molecular target: T3, MBP-MCL1 (MBP, two-residue GS linker, MCL1 173–321 K194A/K197A/R201A) (human, UniProt Q07820 173-321, K194A | K197A | R201A); assay: ITC; hNoxa (20–38) (400 μM or 300 μM) titrated into 25 μM MCL1 173–329 or MBP-MCL1; autoITC200, 25°C, 25 mM Hepes pH 7.4, 100 mM NaCl, 0.1 mM TCEP, 4% DMSO; n ≥ 3, averaged KD; conditions: both partners purified
T3 construct: two-residue linker between MBP and MCL1; MCL1, human, residues 173-321 with three alanine mutations in the disordered loop; only the 6XHis-Tev part was removed with TEV protease; Six of the seven deposited PDB entries hold this construct and one holds MCL1 173–321 without MBP; also called MBP-MCL1 fusion construct; MBP-MCL1 fusion protein; source: E. coli (Top 10 or BL21 (DE3)), purified (Ni2+ …)

MCL1 173–329 (human) = assay: as above
Chain of MCL1 173–329 (human) (Q07820 173-329): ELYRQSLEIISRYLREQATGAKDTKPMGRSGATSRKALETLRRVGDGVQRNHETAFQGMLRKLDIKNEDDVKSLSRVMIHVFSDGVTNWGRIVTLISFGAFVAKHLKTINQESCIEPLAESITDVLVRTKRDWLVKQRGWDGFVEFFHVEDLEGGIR

T1 sequence (Q07820 173-329): as above
T3 sequence (Q07820 other isoform, or with tags, fused parts or gaps with the stated changes): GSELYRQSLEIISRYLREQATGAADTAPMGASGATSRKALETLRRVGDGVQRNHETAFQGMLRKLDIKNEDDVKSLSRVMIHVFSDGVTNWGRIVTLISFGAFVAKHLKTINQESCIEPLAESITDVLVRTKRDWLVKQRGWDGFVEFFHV
T2 sequence (Q07820 173-321 K194A/K197A/R201A): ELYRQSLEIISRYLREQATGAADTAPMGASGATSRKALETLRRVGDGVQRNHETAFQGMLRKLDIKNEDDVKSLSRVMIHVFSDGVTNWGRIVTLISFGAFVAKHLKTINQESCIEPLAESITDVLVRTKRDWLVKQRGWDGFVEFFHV

`O=C(O)c1sc2cc(F)ccc2c1Cl` [compound 4, fragment 4] was tested, and the Kd (MCL1 173–329) was 97 µM and the Kd (MBP-MCL1) was 93 µM.

B1: hNoxa (20–38) (peptide, UniProt Q13794 20-38, looked up)
peptide: ELEVECATQLRRFGDKLNF
notes: Noxa, human, BH3 peptide, residues 20-38; also called BH3 peptide Noxa (20–38)
B1 was tested, and the Kd [1] was 0.19 µM and the Kd (MCL1 173–329 (human)) was 0.16 µM.
